Results as given in paper PMC6017873 (Molecules : A Journal of Synthetic Chemistry and Natural …, 2018).

Legend:
[1] = biological target: T1, HDAC8 (Homo sapiens, UniProt Q9BY41); assay: Selective in vitro HDAC activity assay, recombinant HDAC8; format: biochemical; conditions: 100 µM
T1 sequence (Q9BY41 1-377): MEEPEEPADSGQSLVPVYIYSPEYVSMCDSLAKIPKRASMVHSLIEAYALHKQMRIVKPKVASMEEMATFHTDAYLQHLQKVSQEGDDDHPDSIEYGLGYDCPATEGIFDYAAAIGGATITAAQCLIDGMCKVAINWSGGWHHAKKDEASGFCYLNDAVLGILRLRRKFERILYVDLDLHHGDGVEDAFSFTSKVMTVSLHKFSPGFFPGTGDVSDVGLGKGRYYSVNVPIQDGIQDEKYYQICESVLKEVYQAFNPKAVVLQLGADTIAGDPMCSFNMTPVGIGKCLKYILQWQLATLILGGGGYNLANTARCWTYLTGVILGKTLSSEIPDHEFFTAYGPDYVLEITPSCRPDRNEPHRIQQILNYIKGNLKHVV
Method: (§1) (a) In vitro total HDAC activity was evaluated using K-562 nuclear extracts in the presence of various concentrations of eurochevalierine. (b) Selective in vitro HDAC activity assays were carried out using selected recombinant HDAC proteins in the presence of various concentrations of eurochevalierine. Results are reported as percent of DMSO vehicle control and expressed as the mean ± SD of three independent experiments. * and ** indicate p < 0.05 and p < 0.01 versus untreated cells, respectively.

[2] = biological target: T2, SIRT3 (Homo sapiens, UniProt Q9NTG7); assay: In vitro SIRT3 activity assay; format: biochemical
T2 sequence (Q9NTG7 1-399): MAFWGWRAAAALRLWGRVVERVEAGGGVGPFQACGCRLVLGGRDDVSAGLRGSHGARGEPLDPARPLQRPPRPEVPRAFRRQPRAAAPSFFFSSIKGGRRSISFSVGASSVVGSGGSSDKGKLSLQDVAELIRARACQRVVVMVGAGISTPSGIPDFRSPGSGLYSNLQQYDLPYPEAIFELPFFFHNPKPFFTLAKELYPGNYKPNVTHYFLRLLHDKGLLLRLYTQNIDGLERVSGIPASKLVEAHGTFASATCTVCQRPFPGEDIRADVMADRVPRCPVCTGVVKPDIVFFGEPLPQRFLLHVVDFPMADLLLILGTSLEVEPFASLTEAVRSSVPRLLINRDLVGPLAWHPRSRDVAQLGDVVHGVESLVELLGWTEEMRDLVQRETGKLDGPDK

[3] = biological target: HDAC2 (Homo sapiens, UniProt Q92769); assay: Selective in vitro HDAC activity assay, recombinant HDAC2; format: biochemical; conditions: 100 µM
Method: as §1

[4] = test system: U-373 cells; assay: Sub-G1 fraction by PI flow cytometry, U-373; format: cell-based, human; conditions: U-373, 50 µM, 72 h
Method: Figure 2 Effect of eurochevalierine on cell cycle distribution. Cells were treated with 50 µM eurochevalierine for 72 h and then stained with propidium iodide (PI), and DNA content was measured by flow cytometry. (a) Cell cycle distribution profile in A-549 cells. Results of three independent experiments are represented on the same graph. (b) Quantification of the number of cells in sub-G1 fraction as a percentage of the total cell population. Results are expressed as mean ± SD of at least three independent experiments.
Cells were collected, fixed, and stained with the APO AF TUNEL detection kit (BD, Erembodegem, Belgium) allowing analysis of both apoptosis and cell cycle at the same time. The experiment was conducted accordingly to the procedure of the manufacturer. Data were obtained through flow cytometry with a Cell Lab Quanta apparatus (Analis, Suarlee, Belgium).

[5] = biological target: T3, HDAC10 (Homo sapiens, UniProt Q969S8); assay: Selective in vitro HDAC activity assay, recombinant HDAC10; format: biochemical; conditions: 100 µM
T3 sequence (Q969S8 1-669): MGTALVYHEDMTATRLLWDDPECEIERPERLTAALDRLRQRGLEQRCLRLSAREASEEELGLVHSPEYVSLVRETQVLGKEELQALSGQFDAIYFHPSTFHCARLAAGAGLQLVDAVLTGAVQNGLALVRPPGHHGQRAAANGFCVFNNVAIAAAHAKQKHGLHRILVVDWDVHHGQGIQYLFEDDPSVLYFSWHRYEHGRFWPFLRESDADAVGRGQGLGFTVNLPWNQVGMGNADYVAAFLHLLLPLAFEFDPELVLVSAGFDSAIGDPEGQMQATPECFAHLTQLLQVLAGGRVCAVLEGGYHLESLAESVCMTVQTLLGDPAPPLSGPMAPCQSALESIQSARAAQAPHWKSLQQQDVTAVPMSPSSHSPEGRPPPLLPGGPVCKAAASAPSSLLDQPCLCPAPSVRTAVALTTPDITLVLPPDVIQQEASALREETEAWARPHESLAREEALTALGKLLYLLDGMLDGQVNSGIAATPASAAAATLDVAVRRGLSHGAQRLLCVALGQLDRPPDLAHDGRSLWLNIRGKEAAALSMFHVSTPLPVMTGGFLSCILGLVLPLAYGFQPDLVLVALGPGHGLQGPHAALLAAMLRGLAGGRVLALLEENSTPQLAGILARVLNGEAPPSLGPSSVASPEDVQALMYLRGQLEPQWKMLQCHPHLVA
Method: as §1

[6] = test system: U-373 cells; assay: Acetylation of sirtuin targets by Western blot, U-373; format: cell-based, human; conditions: U-373, 5 and 50 µM, 8 h
Method: (§2) Figure 5 Effect of eurochevalierine on the acetylation status of sirtuin targets. SK-MEL-28, U-373, and A-549 cells were treated with 5 and 50 µM eurochevalierine (EU) for 8 h. Acetylation of histone H4 (AcH4), histone H3 at lysine 56 (AcH3K56), and α-tubulin (Ac α-tubulin) was analyzed via Western blot. β-actin and histone H1 were used as loading controls for the analysis of total and acid extracts, respectively. SAHA (S, 1 µM) was used as a reference HDAC inhibitor. Blots are representative of three independent experiments.
(§3) Total proteins were extracted using the MPER® reagent (Thermo-scientific, Erembodegem-Aalst, Belgium) supplemented by 1× protease inhibitor cocktail (Complete EDTA-free, Roche, Prophac, Luxembourg, Luxembourg) according to manufacturer’s instructions. Histones were extracted as previously described. Western blots were carried out as previously reported.
(§4) Corresponding secondary antibodies were from Santa Cruz Biotechnology.

[7] = test system: SK-MEL-28 cells; assay: Acetylation of sirtuin targets by Western blot, SK-MEL-28; format: cell-based, human; conditions: SK-MEL-28, 5 and 50 µM, 8 h
Method: as §2, §3, §4

HDAC2, sequence (Q92769 whole entry): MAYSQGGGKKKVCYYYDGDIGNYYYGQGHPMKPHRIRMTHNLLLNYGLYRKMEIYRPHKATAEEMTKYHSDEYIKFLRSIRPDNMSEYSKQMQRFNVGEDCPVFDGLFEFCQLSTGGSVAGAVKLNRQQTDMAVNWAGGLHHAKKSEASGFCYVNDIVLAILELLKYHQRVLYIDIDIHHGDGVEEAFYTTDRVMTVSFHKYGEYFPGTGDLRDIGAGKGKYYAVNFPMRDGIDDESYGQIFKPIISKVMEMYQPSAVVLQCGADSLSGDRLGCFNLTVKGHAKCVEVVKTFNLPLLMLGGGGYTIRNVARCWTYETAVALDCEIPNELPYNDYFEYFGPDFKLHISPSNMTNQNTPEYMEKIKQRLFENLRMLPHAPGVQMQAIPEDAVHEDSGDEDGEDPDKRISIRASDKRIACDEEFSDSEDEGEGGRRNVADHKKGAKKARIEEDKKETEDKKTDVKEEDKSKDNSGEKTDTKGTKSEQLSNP

C=C(C)[C@@H]1CC[C@@H](C)[C@@]2(O)[C@@H]1C=C(C)[C@@H](OC(C)=O)[C@@H]2OC(=O)[C@H](CC(=O)c1ccccc1NC)NC=O [Eurochevalierine, eurochevalierine]
effect on HDAC8 deacetylase activity [1]: without effect
remaining SIRT3 enzymatic activity compared to the control set to 100% ([2]; at 100 µM): 59%
IC50 ([2]; mean ± SD of three independent experiments): > 100 µM
effect on HDAC2 deacetylase activity [3]: without effect
sub-G1 fraction [4]: did not increase the sub-G1 fraction
effect on HDAC10 deacetylase activity [5]: without effect
acetylation of sirtuin targets (AcH4, AcH3K56, Ac α-tubulin) [6]: robust and dose-dependent increase
acetylation of sirtuin targets (AcH4, AcH3K56, Ac α-tubulin) [7]: robust and dose-dependent increase
